ChEMBL document CHEMBL1135492, “An investigation of bone resorption and Dictyostelium discoideum growth inhibition by bisphosphonate drugs” (J Med Chem, 2002)

Columns and labels:
Dictyostelium discoideum = assay: Ability to inhibit growth of Dictostelium discoideum.; format: functional, organism-based
Rattus norvegicus = organism: Rattus norvegicus; assay: Bone resorption activity in rats.; format: functional

Row | Compound | IC50 (Dictyostelium discoideum) [µM] | LED (Rattus norvegicus) [mgP kg-1]
1 | NCCCC(P(=O)(O)O)P(=O)(O)O | 44 | 
2 | Cc1cccnc1NC(P(C)(=O)O)P(=O)(O)O (stereo unspecified) |  | 1
3 | O=P(O)(O)C(Nc1ccccn1)P(=O)(O)O | 12 | 0.01
4 | O=P(O)(O)C(O)(CCc1cccnc1)P(=O)(O)O | 310 | 1
5 | O=P(O)(O)C(CNc1ccccn1)P(=O)(O)O | 15 | 0.01
6 | CCN(c1ccncc1)C(P(=O)(O)O)P(=O)(O)O |  | 0.1
7 | O=P(O)(O)C1(P(=O)(O)O)Cc2cccnc2C1 | 1200 | 
8 | C[n+]1cccc2c1CC(P(=O)(O)O)(P(=O)(O)O)C2 |  | 0.1
9 | O=P(O)(O)C(O)(C1CCc2ccncc21)P(=O)(O)O (stereo unspecified) | 36 | 0.01
10 | Cc1ccc(NC(P(C)(=O)O)P(=O)(O)O)nc1 (stereo unspecified) |  | 1
11 | O=P(O)(O)C(CCc1ccccn1)P(=O)(O)O | 150 | 
12 | O=P(O)(O)C1(P(=O)(O)O)CC2CCCNC2C1 (stereo unspecified) | 13 | 0.01
13 | C[n+]1ccc(CC(O)(P(=O)(O)O)P(=O)(O)O)cc1 |  | 0.01
14 | O=P(O)(O)C(O)(Cc1ccccn1)P(=O)(O)O |  | 0.001
15 | O=P(O)(O)C(Nc1ccc(Cl)cn1)P(=O)(O)O |  | 0.01
16 | Cc1cccnc1NC(P(=O)(O)O)P(=O)(O)O | 9 | 0.001
17 | Cc1ccnc(NC(P(=O)(O)O)P(=O)(O)O)c1 |  | 0.001
18 | O=P(O)(O)C(O)(Cc1ccncc1)P(=O)(O)O |  | 0.01
19 | Cc1cccc(NC(P(=O)(O)O)P(=O)(O)O)n1 |  | 0.001

Row | Compound | IC50 (Dictyostelium discoideum) [µM] | LED (Rattus norvegicus) [mgP kg-1]
20 | O=P(O)(O)C(Cc1cccnc1)P(=O)(O)O |  | 0.01
21 | Cc1cccnc1NCC(P(=O)(O)O)P(=O)(O)O | 40 | 1
22 | CCCCP(=O)(O)C(Nc1ncccc1C)P(=O)(O)O (stereo unspecified) |  | 1
23 | O=P(O)(O)C(C1CCc2cccnc21)P(=O)(O)O (stereo unspecified) | 38 | 0.1
24 | O=P(O)(O)C(Nc1ncccn1)P(=O)(O)O |  | 0.001
25 | CCCCCCC[n+]1ccc(CC(O)(P(=O)(O)O)P(=O)(O)O)cc1 |  | 0.01
26 | O=P(O)(O)C(O)(CCc1ccncc1)P(=O)(O)O |  | 1
27 | Cc1ccc(NC(P(=O)(O)O)P(=O)(O)O)nc1 |  | 0.001
28 | C[n+]1cccc(CC(O)(P(=O)(O)O)P(=O)(O)O)c1 |  | 0.0001
29 | C[n+]1ccccc1CC(O)(P(=O)(O)O)P(=O)(O)O |  | 0.01
30 | NCCCC(O)(P(=O)(O)O)P(=O)(O)O [ALENDRONIC ACID] | 32 | 0.001
31 | CC(O)(P(=O)(O)O)P(=O)(O)O [ETIDRONIC ACID] | 380 | 1
32 | CCCCCN(C)CCC(O)(P(=O)(O)O)P(=O)(O)O [IBANDRONIC ACID] |  | 0.0001
33 | O=P(O)(O)C(NC1CCCCCC1)P(=O)(O)O [INCADRONIC ACID] |  | 0.001
34 | O=P(O)(O)C(O)(Cc1cnc2ccccn12)P(=O)(O)O [MINODRONIC ACID] |  | 0.0001
35 | NCCC(O)(P(=O)(O)O)P(=O)(O)O [PAMIDRONIC ACID] | 167 | 0.03
36 | O=P(O)(O)C(Cc1ccccn1)P(=O)(O)O [PIRIDRONIC ACID] | 20 | 0.01
37 | O=P(O)(O)C(O)(Cc1cccnc1)P(=O)(O)O [RISEDRONIC ACID] | 13 | 0.0003
38 | O.O=P(O)(O)C(O)(Cn1ccnc1)P(=O)(O)O [ZOLEDRONIC ACID] |  | 0.0001
